Here are results for eight compounds from patent publication US20250230154A1, “COMPOUND HAVING SHP2 PROTEIN DEGRADING ACTIVITY, AND MEDICAL USES THEREOF” (UBIX THERAPEUTICS, INC., priority 2021, published 2025).

In this assay the target is T1, SHP2 protein (Homo sapiens, UniProt Q06124).
T1 sequence (Q06124 1-593): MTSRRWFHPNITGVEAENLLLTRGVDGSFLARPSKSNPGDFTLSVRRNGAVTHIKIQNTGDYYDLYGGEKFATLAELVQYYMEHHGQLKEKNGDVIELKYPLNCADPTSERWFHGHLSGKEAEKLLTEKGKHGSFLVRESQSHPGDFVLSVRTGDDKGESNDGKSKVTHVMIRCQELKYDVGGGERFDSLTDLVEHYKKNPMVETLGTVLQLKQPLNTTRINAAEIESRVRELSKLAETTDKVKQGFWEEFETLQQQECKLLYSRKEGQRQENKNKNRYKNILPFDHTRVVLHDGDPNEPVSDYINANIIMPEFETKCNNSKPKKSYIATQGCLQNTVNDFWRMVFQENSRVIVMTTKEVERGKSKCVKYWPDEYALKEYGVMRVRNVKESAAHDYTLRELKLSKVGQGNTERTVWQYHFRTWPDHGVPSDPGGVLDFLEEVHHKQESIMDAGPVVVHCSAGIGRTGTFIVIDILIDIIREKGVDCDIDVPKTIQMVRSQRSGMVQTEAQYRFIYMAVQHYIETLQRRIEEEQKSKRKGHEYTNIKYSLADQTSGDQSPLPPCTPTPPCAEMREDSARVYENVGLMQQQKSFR
In words: Measurement of SHP2 protein degradation in KYSE-520 cells (western blotting). It is filed as cell-based. Also on record: endogenous in cells. The conditions noted are these: 24 hours. The method, then: Experimental Example 1: Measurement of SHP2 Protein Degradation in KYSE-520 Cells
KYSE-520 cells were treated with the synthesized Example compound, and the amount of SHP2 protein present in the cells was measured using western blotting detection. The protocol of the experiment conducted using KYSE-520 cells was as follows:
[Culture] KYSE-520 cells resuspended in RPMI1640 MEDIUM (Hyclone, SH30027.01) containing 5% FBS (Hyclone, SV30207.02) and 1% Penicillin-streptomycin (Welgene, LS 202-02) were seeded at a density of 2.5×10^5/well in a 6-well plate in an amount of 2 ml each and incubated for 2 days.
[Compound treatment] […] After 24 hours, cells were harvested. For the negative control group, DMSO diluted 1/10 to the media (3 mL DMSO+27 mL media) was added.
[Cell Lysis and Protein Quantification] Lysis buffer was prepared as follows: […] of RIPA buffer (Biosesang, RC2038-050-00)+0.5 mM PMSF (SIGMA, P7626)+1× Protease/Phosphatase Inhibitor (Cell signaling, 5872S) per well was added and placed on ice for 30 minutes (vortexing at 0 and 30 minutes, respectively). After sonication process (10 seconds pulse, 30 seconds rest, 5 cycles, 70% amplification), centrifugation (15000 g, 15 min, 4° C.) was performed, and then only the supernatant was taken and transferred to a new microtube. The sample was diluted ¼ with RIPA buffer in a 96-well plate, and mixed with A:B=50:1 of the BCA Protein Assay Kit (iNtRON, 21071). […] each of the mixture was left at 37° C. for 30 minutes, and cooled for 10 minutes. Then, absorbance was measured at 562 nm with the SYNERGY H1 microplate reader from BioTek. After making a sample by quantifying the protein with the measured value, boiling was performed at 70° C. for 10 minutes. At this time, the sample buffer used was a mixture of NuPAGE or Bolt 4× sample buffer (Invitrogen) and each 10× sample reducing agent according to the gel to be used, and RIPA buffer was used for protein dilution.
[Western blotting detection method] The same amount of sample was loaded on NuPAGE or Bolt Bis-tris 4-12% gradient gel and run (200 V, 35 minutes). It was transferred to 0.2 mm NC membrane with Trans-blot Turbo (BIO-RAD) (1.3 A constant, 25 V limit, 15 minutes). Blocking was performed at room temperature for 1 hour with Skim milk or Intercept Blocking Buffer (LI-COR, 927-60001):0.1% TBST=1:1. Anti SHPTP2 Mouse (1:500 in 5% Skim milk/TBST, size: 70 kDa, Santacruz sc-7384) was incubated overnight at 4° C., and Anti GAPDH Rabbit (1:2,000 in 5% BSA/0.2% TBST, size: 37 kDa, CST #2118) was incubated at room temperature for 1 hour 30 minutes or 3 hours. It was washed 3 times for 5 minutes each with 0.2% TBST washing buffer. Secondary antibody Anti-Rabbit IgG (1:5,000 in 5% Skim milk/0.2% TBST, CST), and IRDye® 680RD Goat anti-Rabbit IgG Secondary Antibody (1:10,000 in 5% BSA/0.2% TBST, LI-COR 926-68071) were incubated for 45 minutes on a rocker at room temperature. It was washed 5 times for 5 minutes each with 0.2% TBST washing buffer and detected with LI-COR's Odyssey. At this time, SHPTP2 was detected using SuperSignal West Pico PLUS Chemiluminescent Substrate, and house-keeping genes were also detected.
In the results of Table 4 below, Compounds 1-7, 13-19, and 21-26 are results in KYSE-520 cells, and the others are results in MV-4-11 cells.
(In general: In western blotting, separated proteins are transferred to a membrane and probed.)

For the compound `Cc1ncsc1-c1ccc(CNC(=O)[C@@H]2C[C@@H](O)CN2C(=O)[C@@H](NC(=O)C2(F)CC2)C(C)(C)C)c(OCCCN2CCC(CCC(=O)Nc3cccc(Sc4cnc(N5CCC(C)(CN)CC5)cn4)c3Cl)CC2)c1` [Example 14, (2S,4R)—N-(2-(3-(4-(3-((3-((5-(4-(aminomethyl)-4-methylpiperidin-1-yl)pyrazin-2-yl)thio)-2-chlorophenyl)amino)-3-oxopropyl)piperidin-1-yl)propoxy)-4-(4-methylthiazol-5-yl)benzyl)-1-((S)-2-(1-fluorocyclopropane-1-carboxamido)-3,3-dimethylbutanoyl)-4-hydroxypyrrolidine-2-carboxamide], the “SHP2 degradation (%) 10 nM” value is on record as 14.2%, the “SHP2 degradation (%) 100 nM” value turned out to be 60.1% and the “SHP2 degradation (%) 1000 nM” value was determined as 69.1%.

As for `Cc1ncsc1-c1ccc(CNC(=O)[C@@H]2C[C@@H](O)CN2C(=O)[C@@H](NC(=O)C2(F)CC2)C(C)(C)C)c(OCCCCN2CCC(CCC(=O)Nc3cccc(Sc4cnc(N5CCC(C)(CN)CC5)cn4)c3Cl)CC2)c1` [Example 15, (2S,4R)—N-(2-(4-(4-(3-((3-((5-(4-(aminomethyl)-4-methylpiperidin-1-yl)pyrazin-2-yl)thio)-2-chlorophenyl)amino)-3-oxopropyl)piperidin-1-yl)butoxy)-4-(4-methylthiazol-5-yl)benzyl)-1-((S)-2-(1-fluorocyclopropane-1-carboxamido)-3,3-dimethylbutanoyl)-4-hydroxypyrrolidine-2-carboxamide], the “SHP2 degradation (%) 10 nM” value came to 21.7%, the “SHP2 degradation (%) 100 nM” value was determined as 58.3% and the “SHP2 degradation (%) 1000 nM” value is recorded as 74.6%.

`Cc1ncsc1-c1ccc(CNC(=O)[C@@H]2C[C@@H](O)CN2C(=O)[C@@H](NC(=O)C2(F)CC2)C(C)(C)C)c(OCCN2CCC(CC(=O)Nc3cccc(Sc4cnc(N5CCC(C)(CN)CC5)cn4)c3Cl)CC2)c1` [Example 5, (2S,4R)—N-(2-(2-(4-(2-((3-((5-(4-(aminomethyl)-4-methylpiperidin-1-yl)pyrazin-2-yl)thio)-2-chlorophenyl)amino)-2-oxoethyl)piperidin-1-yl)ethoxy)-4-(4-methylthiazol-5-yl)benzyl)-1-((S)-2-(1-fluorocyclopropane-1-carboxamido)-3,3-dimethylbutanoyl)-4-hydroxypyrrolidine-2-carboxamide]: the “SHP2 degradation (%) 10 nM” value was found to be 3.4%, the “SHP2 degradation (%) 100 nM” value stood at 56.7% and the “SHP2 degradation (%) 1000 nM” value came to 90.6%.

In the case of `Cc1ncsc1-c1ccc(CNC(=O)[C@@H]2C[C@@H](O)CN2C(=O)[C@@H](NC(=O)C2(F)CC2)C(C)(C)C)c(OCCCCN2CCC(C(=O)Nc3cccc(Sc4cnc(N5CCC(C)(CN)CC5)cn4)c3Cl)CC2)c1` [Example 2, N-(3-((5-(4-(aminomethyl)-4-methylpiperidin-1-yl)pyrazin-2-yl)thio)-2-chlorophenyl)-1-(4-(2-(((2S,4R)-1-((S)-2-(1-fluorocyclopropane-1-carboxamido)-3,3-dimethylbutanoyl)-4-hydroxypyrrolidine-2-carboxamido)methyl)-5-(4-methylthiazol-5-yl)phenoxy)butyl)piperidine-4-carboxamide], the “SHP2 degradation (%) 10 nM” value amounted to 23.3%, the “SHP2 degradation (%) 100 nM” value was 81.8% and the “SHP2 degradation (%) 1000 nM” value was determined as 94.3%.

For `Cc1ncsc1-c1ccc(CNC(=O)[C@@H]2C[C@@H](O)CN2C(=O)[C@@H](NC(=O)C2(F)CC2)C(C)(C)C)c(OCCCCCC(=O)N2CCC(CCCC(=O)Nc3cccc(Sc4cnc(N5CCC(C)(CN)CC5)cn4)c3Cl)CC2)c1` [Example 26, (2S,4R)—N-(2-((6-(4-(4-((3-((5-(4-(aminomethyl)-4-methylpiperidin-1-yl)pyrazin-2-yl)thio)-2-chlorophenyl)amino)-4-oxobutyl)piperidin-1-yl)-6-oxohexyl)oxy)-4-(4-methylthiazol-5-yl)benzyl)-1-((S)-2-(1-fluorocyclopropane-1-carboxamido)-3,3-dimethylbutanoyl)-4-hydroxypyrrolidine-2-carboxamide], the “SHP2 degradation (%) 10 nM” value is reported as 40.6%, the “SHP2 degradation (%) 100 nM” value was determined as 83.2% and the “SHP2 degradation (%) 1000 nM” value came out at 95.0%.

With `Cc1ncsc1-c1ccc(CNC(=O)[C@@H]2C[C@@H](O)CN2C(=O)[C@@H](NC(=O)C2(F)CC2)C(C)(C)C)c(OCCCCCCN2CCC(C(=O)Nc3cccc(Sc4cnc(N5CCC(C)(CN)CC5)cn4)c3Cl)CC2)c1` [Example 3, N-(3-((5-(4-(aminomethyl)-4-methylpiperidin-1-yl)pyrazin-2-yl)thio)-2-chlorophenyl)-1-(6-(2-(((2S,4R)-1-((S)-2-(1-fluorocyclopropane-1-carboxamido)-3,3-dimethylbutanoyl)-4-hydroxypyrrolidine-2-carboxamido)methyl)-5-(4-methylthiazol-5-yl)phenoxy)hexyl)piperidine-4-carboxamide], the “SHP2 degradation (%) 10 nM” value is on record as −15.6%, the “SHP2 degradation (%) 100 nM” value was found to be 48.8% and the “SHP2 degradation (%) 1000 nM” value is given as 84.0%.

Take `Cc1ncsc1-c1ccc(CNC(=O)[C@@H]2C[C@@H](O)CN2C(=O)[C@@H](NC(=O)C2(F)CC2)C(C)(C)C)c(OCCN2CCC(CCCC(=O)Nc3cccc(Sc4cnc(N5CCC(C)(CN)CC5)cn4)c3Cl)CC2)c1` [Example 16, (2S,4R)—N-(2-(2-(4-(4-((3-((5-(4-(aminomethyl)-4-methylpiperidin-1-yl)pyrazin-2-yl)thio)-2-chlorophenyl)amino)-4-oxobutyl)piperidin-1-yl)ethoxy)-4-(4-methylthiazol-5-yl)benzyl)-1-((S)-2-(1-fluorocyclopropane-1-carboxamido)-3,3-dimethylbutanoyl)-4-hydroxypyrrolidine-2-carboxamide]: the “SHP2 degradation (%) 10 nM” value was −24.3%, the “SHP2 degradation (%) 100 nM” value is reported as 45.1% and the “SHP2 degradation (%) 1000 nM” value is 84.0%.

As to `Cc1ncsc1-c1ccc(CNC(=O)[C@@H]2C[C@@H](O)CN2C(=O)[C@@H](NC(=O)C2(F)CC2)C(C)(C)C)c(OCCN2CCC(CCC(=O)Nc3cccc(Sc4cnc(N5CCC(C)(CN)CC5)cn4)c3Cl)CC2)c1` [Example 13, (2S,4R)—N-(2-(2-(4-(3-((3-((5-(4-(aminomethyl)-4-methylpiperidin-1-yl)pyrazin-2-yl)thio)-2-chlorophenyl)amino)-3-oxopropyl)piperidin-1-yl)ethoxy)-4-(4-methylthiazol-5-yl)benzyl)-1-((S)-2-(1-fluorocyclopropane-1-carboxamido)-3,3-dimethylbutanoyl)-4-hydroxypyrrolidine-2-carboxamide], the “SHP2 degradation (%) 10 nM” value is on record as −6.1%, the “SHP2 degradation (%) 100 nM” value was found to be 49.6% and the “SHP2 degradation (%) 1000 nM” value was 69.2%.
